Target: T1, YL2 (YL2-His) (Oryza sativa, UniProt Q5JJV9)
T1 construct: gene Os01g0965400; full-length cDNA (351 residues including putative 58-residue transit peptide) in pET44a, E. coli BL21, Ni-NTA
T1 sequence (Q5JJV9 1-351): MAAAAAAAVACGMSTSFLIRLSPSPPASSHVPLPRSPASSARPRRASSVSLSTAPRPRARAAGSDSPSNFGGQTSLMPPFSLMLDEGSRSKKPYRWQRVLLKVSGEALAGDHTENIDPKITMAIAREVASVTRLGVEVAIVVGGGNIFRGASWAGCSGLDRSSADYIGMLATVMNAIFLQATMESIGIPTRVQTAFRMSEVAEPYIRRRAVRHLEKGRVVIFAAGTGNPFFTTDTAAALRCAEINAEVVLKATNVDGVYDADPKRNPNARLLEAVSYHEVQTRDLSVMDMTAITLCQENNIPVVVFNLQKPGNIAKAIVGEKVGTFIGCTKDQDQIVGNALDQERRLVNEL
Assay: Kinase-Glo luminescence (residual ATP)
Assay type: biochemical
Conditions: 0.2 mM UMP, 10 μM ATP, 10 mM MgCl2, 1 mM DTT, 50 mM Tris-HCl pH 7.5, 30 °C, 0.5 h

Structure (SMILES)	Kinase-Glo luminescence (residual ATP)
Nc1ncnc2c1ncn2[C@@H]1O[C@H](COP(=O)(O)OP(=O)(O)OP(=O)(O)O)[C@@H](O)[C@H]1O [ATP]	decreased levels of RLU, reflecting the amount of residual ATP remaining after the UMP kinase reaction
O=c1ccn([C@@H]2O[C@H](COP(=O)(O)O)[C@@H](O)[C@H]2O)c(=O)[nH]1 [UMP]	confirming that YL2 has prokaryotic UMP kinase activity in vitro

— PMC5999181, “UMP kinase activity is involved in proper chloroplast development in rice” (Photosynthesis Research, 2018)
